Laboratory results: US20100210568A1, “T[…] HORMONE FOR […] APPLICATIONS” (priority 2007, published 2010)

Columns and labels:
HIV-1IIIB = assay: HIV-1 antiviral assay (CPE reduction, MTS) in CEM-SS cells; format: cell-based; conditions: for antiviral activity of positive control compounds (in words): HIV-1 assay validity; for % CPE reduction in HIV-1 infected CEM-SS cells: test peptide 10 micrograms per ml, 6 days post-infection, MTS
CEM-SS cells = assay: Cytotoxicity (MTS cell viability) in the HIV-1 assay; conditions: test peptide 10 micrograms per ml, MTS
HepG2-2.2.15 cells = assay: Cytotoxicity (dye uptake cell viability) in the HBV assay; format: cell-based; conditions: % cell control
HCMV strain AD169 = assay: HCMV plaque reduction assay in MRC-5 cells; format: cell-based
Excerpt: (§1) Cells were split twic a week 1:2.
Ganciclovir was used as positive control.

MRC-5 cells = assay: Cytotoxicity testing in MRC-5 cells (CellTiter 96); format: cell-based, human; conditions: 6 days incubation
Procedure: as §1
(§2) For cytotxicity testing, MRC-5 cells were seeded at 2,500 cells/well in 96 well plates using growth medium. […] The following day, peptide was added and tested in duplicates. After a 6 days incubation period, cell viability was measured using CellTiter 96 Solution (Promega). Plates were incubated for additional 4 hours at 37° C.

[1] = test system: hepatitis B virus (HBV) ayw strain in HepG2-2.2.15 cells; assay: HBV experimental assay system (secreted HBV DNA, TaqMan PCR); format: cell-based; conditions: test peptide 10 micrograms per ml; six days; HBV DNA in supernatant
[2] = Cytotoxicity (dye uptake cell viability) in the HBV assay; format: cell-based; conditions: human, HepG2-2.2.15 cells, % cell control
[3] = Cytotoxicity testing in MRC-5 cells (CellTiter 96); format: cell-based, human; conditions: human, MRC-5 cells (embryonal lung fibroblasts), 6 days incubation, read-out: % Cell Viability
Procedure: as §1, §2

Pseudomonas aeruginosa = Pseudomonas aeruginosa assay; format: cell-based; conditions: peptide 10 micrograms per ml, visual reading of growth
Streptococcus pneumoniae = Streptococcus pneumoniae assay; format: cell-based; conditions: peptide 10 micrograms per ml, visual reading of growth
A549 cells [4] = assay: Cell cycle assay (propidium iodide, FACS); format: cell-based, human; conditions: peptide 10 micrograms per ml, 24 hours
[5] = test system: Human Peripheral Blood Mononuclear Cells (PBMC), T cell proliferation; assay: T cell proliferation assay (PHA, 3H-thymidine); format: cell-based; conditions: peptide 10 micrograms per ml; 3 days plus 12 hours 3H-thymidine
[6] = test system: Human Peripheral Blood Mononuclear Cells (PBMC), B cell proliferation; assay: B cell proliferation assay (SAC plus Interleukin-2, 3H-thymidine); format: cell-based; conditions: peptide 10 micrograms per ml; 3 days plus 12 hours 3H-thymidine
RAW 264.7 cells = assay: Phagocytosis assay (Fluorescein-labeled Escherichia coli, flow cytometry); format: cell-based, mouse; conditions: peptide 10 micrograms per ml; 30 min preincubation, 60 min ingestion
Procedure: RAW 264.7 (Mouse leukaemic monocyte macrophage cell line) cells were obtained from ATCC and grown in RPMI 1640 medium containing 10% FBS. […] After the cells were incubated for additional 60 min at 37° C. and allowed to ingest the Fluorescein-labeled Escherichia coli bacteria, cells were fixed with 1% paraformaldehyde. The samples were then analyzed by flow cytometry to determine the amount of phagocytosis as a function of brightness (the greater the phagocytic activity, the more fluorescence in the macrophage population). Data are reported as % positive and the mean fluorescence intensity (MFI) of positively stained cells.

A549 cells [7] = assay: Apoptosis induction assay (Annexin-5); format: cell-based, human; conditions: peptide 10 micrograms per ml, 24 hours
A549 cells [8] = assay: Apoptosis prevention assay (C2 ceramide, Annexin-5); format: cell-based, human; conditions: peptide 10 micrograms per ml; 30 min pretreatment, then C2 ceramide
[9] = test system: Tumor Necrosis Factor-α (TNF-α), spleen cells; assay: Th1/Th2 cytokine profiling assay: TNF-α; format: cell-based, Balb/c mice; conditions: peptide 10 micrograms per ml; Ovalbumin restimulation 10 micrograms/ml; 72 hours
[10] = test system: Interferon-γ (IFN-γ), spleen cells; assay: Th1/Th2 cytokine profiling assay: IFN-γ; format: cell-based, Balb/c mice; conditions: peptide 10 micrograms per ml; Ovalbumin restimulation 10 micrograms/ml; 72 hours
[11] = test system: Interleukin-2 (IL-2), spleen cells; assay: Th1/Th2 cytokine profiling assay: IL-2; format: cell-based, Balb/c mice; conditions: peptide 10 micrograms per ml; Ovalbumin restimulation 10 micrograms/ml; 72 hours
[12] = test system: Interleukin-4 (IL-4), spleen cells; assay: Th1/Th2 cytokine profiling assay: IL-4; format: cell-based, Balb/c mice; conditions: peptide 10 micrograms per ml; Ovalbumin restimulation 10 micrograms/ml; 72 hours
[13] = test system: Interleukin-5 (IL-5), spleen cells; assay: Th1/Th2 cytokine profiling assay: IL-5; format: cell-based, Balb/c mice; conditions: peptide 10 micrograms per ml; Ovalbumin restimulation 10 micrograms/ml; 72 hours
[14] = test system: TNF alpha production in PBMC-derived macrophages; assay: TNF alpha production assay (LPS-stimulated macrophages, ELISA); format: cell-based, human; conditions: peptide 10 micrograms per ml, 30 min; lipopolysaccharide 200 ng/ml; overnight
Excerpt: Not stimulated macrophages served as negative background control.

[15] = test system: Primary Human endothelial cells (HUVEC); assay: Endothelial cell migration assay; format: cell-based; conditions: peptide 10 micrograms per ml; 22 hours
HUVEC = assay: Endothelial tube formation assay; format: cell-based, human; conditions: peptide 10 micrograms per ml; 20 hours
Excerpt: Positive control was vehicle only. […] Raw data were expressed as average tubule lenghs in pixels±standard deviation.

[16] = test system: cyclic AMP generation in human peripheral blood mononuclear cells (PBMC); assay: cAMP induction assay (ELISA); format: cell-based; conditions: 10 min at 37° C.; forskolin 50 micrograms per ml as positive control
Procedure: The cAMP kit was used as an immunoassay for the quantitative determination of cyclic AMP generation in human peripheral blood mononuclear cells (PBMC). PBMC were placed in 96-well microtitier plates (50 microliters of cells at 4×10^6/ml) and 50 microliters of medium alone (background control), forskolin (cAMP positive control; 50 micrograms per ml), or test peptide were added. Plates were mixed and incubated for 10 min at 37° C. and the cells were lysed by the addition of 50 microliters of 3% perchloric acid. NaOH was added to neutralize the samples. Plates were centrifuged for 15 min at 2500 rpm and the supernatants removed. The supernatants (diluted 2-fold in assay buffer) were then assayed for the levels of cAMP by ELISA.

MRSA = conditions: peptide 10 micrograms per ml, visual reading of growth
[17] = Cytotoxicity (MTS cell viability) in the HIV-1 assay; conditions: human, CEM-SS cells

## Cc1cn([C@H]2C[C@H](N=[N+]=[N-])[C@@H](CO)O2)c(=O)[nH]c1=O [AZT]
HIV-1IIIB
  antiviral activity of positive control compounds (in words): expected levels of antiviral activity
  % CPE reduction in HIV-1 infected CEM-SS cells: 99%
CEM-SS cells
  % Cell viability: 97%

## Nc1ccn([C@@H]2CS[C@H](CO)O2)c(=O)n1 [Compound 3TC, Lamivudine, reference compound]
HepG2-2.2.15 cells
  % Cell viability: 95.8%

## Nc1nc(O)c2ncn(COC(CO)CO)c2n1 [Ganciclovir, reference compound]
HCMV strain AD169; HCMV assay validity
  antiviral activity of positive control compound (in words): expected levels of antiviral activity
MRC-5 cells
  % Cell viability: 100%

## CC(C)(C)NC(=O)[C@@H]1CN(Cc2cccnc2)CCN1C[C@@H](O)C[C@@H](Cc1ccccc1)C(=O)N[C@H]1c2ccccc2C[C@H]1O [Indinavir]
HIV-1IIIB
  antiviral activity of positive control compounds (in words): expected levels of antiviral activity
CEM-SS cells
  % Cell viability: 93%

## NC(=O)[C@@H]1CCCN1C(=O)[C@H](Cc1cnc[nH]1)NC(=O)[C@@H]1CCC(=O)N1 [TRH, Pyr-His-Pro-NH2]
HIV-1IIIB
  % CPE reduction in HIV-1 infected CEM-SS cells: 0.0%
[1]
  % inhibition of HBV replication in HEP G2 cells: 3.3%
[2]
  viability at 144 h, 10 micrograms per ml: 87.4%
HCMV strain AD169; peptide 10 micrograms per ml, 7-10 days, MRC-5 cells
  % plaque reduction: 0.0%
[3]
  viability at 144 h: 100%
Pseudomonas aeruginosa
  % inhibition: 0.0%
Streptococcus pneumoniae
  % inhibition: 0.0%
A549 cells [4]
  Cell cycle analysis G0/G1: 58.1
  Cell cycle analysis G2/M: 10.7
  Cell cycle analysis S: 31.3
[5]
  % of PHA induced Control: 98.6%
[6]
  % of SAC/IL2 induced control: 106.0%
RAW 264.7 cells
  % of control phagocytosis: 131.4%
A549 cells [7]
  % of induction: 0.7%
A549 cells [8]
  % prevention of ceramide induced apoptosis: 17.2%
[9]
  TNF-a spleen cells; TH1 response (% of control): 110.7 % of control
[10]
  IFNγ spleen cells; TH1 response (% of control): 102.0 % of control
[11]
  IL-2 spleen cells (% of control): 0.0 % of control
[12]
  IL-4 spleen cells; TH2 response (% of control): 106.2 % of control
[13]
  IL-5 spleen cells; TH2 response (% of control): 67.5 % of control
[14]
  % of LPS induction: 106.7%
[15]
  % inhibition of migration: −12%
HUVEC
  % inhibition of tube formation: 7%
[16]
  % of Forskolin (positive control) induced cAMP formation: 0.0%
MRSA
  % inhibition: 0.0%
[17]
  viability at 10 micrograms per ml: 94.6%
